# Reference: PMC7587962, “Evaluation of Cytotoxicity and α-Glucosidase Inhibitory Activity of Amide and Polyamino-Derivatives of Lupane Triterpenoids” (Molecules, 2020)
# Read-outs that look alike come from different tables or passages of the source.
# How the values were obtained:
# [1] = test system: Rat Liver ER Neutral α-Glucosidase; test: Endoplasmic reticulum α-glucosidase activity assay; format: biochemical
# Excerpt: Betulinic acid inhibits yeast α-glucosidase activity and interferes with N-linked glycan modifications to cell-surface intercellular adhesion molecule-1 (ICAM-1) in human lung carcinoma A549 cells in a similar manner to castanospermine, an inhibitor of endoplasmic reticulum α-glucosidases I and II [66]. […] Taken together, these considerations prompted us to evaluate a series of lupanes with amide function or polyamine chain 11, 12, 16, 18, and 22–26 for α-glucosidase inhibition. Initially, they were screened against α-glucosidase of S. cerevisiae as an accessible and high-throughput model. Confirmatory experiments were performed on isolated rough endoplasmic reticulum vesicles from rat liver, which contain neutral α-glucosidases I and II in a membrane-bound form.
# Endoplasmic reticulum was isolated from hepatocytes of decapitated male Sprague-Dawley rats, which were starved overnight and sacrificed the next morning. All experiments were approved by Volgograd regional ethic committee. The whole procedure was performed at 4 °C. In brief, a fresh tissue sample from an animal was washed twice with 10 mL of PBS to remove residual blood. The tissue was placed on a paper towel in order to absorb excess liquid and blood clots, if present. It was cut further into small pieces (1.5–2 cm) and washed once more. […] Homogenate was centrifuged at 1000× g for 10 min at 4 °C. After removal of the floating lipid layer by aspiration, supernatant was separated and centrifuged at 12,000× g for 15 min. at 4 °C. The supernatant fraction, which is the post mitochondrial fraction (PMF), was used for isolation of rough endoplasmic reticulum (RER) enriched microsomes by precipitation with 8 mM CaCl2 added dropwise. The final concentration of CaCl2 was 7 mM. Resulting sample was centrifuged at 8000 g for 10 min. at 4 °C. The supernatant was discarded, and the pellet was suspended in isotonic extraction buffer (0.3 mL of buffer for each g of original tissue). The suspension was homogenized completely to afford RER enriched microsomes. In a 96-well flat transparent plate 25 µL of the isolated RER microsomes were incubated with 50 µL of test compounds in 67 mM PBS (pH 6.8) at 37 °C for 10 min. Then, p-nitrophenyl-α-D-glucopyranoside (Sigma #N1377, St. Louis, MO, USA) was added to 1 mM final concentration and increase in absorbance was recorded for 42 min at 405 nm wavelength with Infinite M200 PRO microplate reader (Tecan, Austria). Concentration of RER microsomes was adjusted to achieve an increase in optical density of ~0.2 in control samples after 30 min. of incubation. Test compounds were prepared as described above for the yeast α-glucosidase assay.
# [2] = test system: 60 human tumor cell lines; test: cells
# HT29 = test: NCI-60 SRB screen: colon cancer HT29; format: cell-based; settings: Homo sapiens, HT-29, 48 h; HT29; single dose 10 µM; read-out: Percentage Cell Growth
# MDA-MB-231/ATCC = test: NCI-60 SRB screen: breast cancer MDA-MB-231/ATCC; format: cell-based; settings: Homo sapiens, 48 h; MDA-MB-231/ATCC; single dose 10 µM; read-out: Percentage Cell Growth
# HL-60(TB) = test: NCI-60 SRB screen: leukemia HL-60(TB); format: cell-based; settings: Homo sapiens, 48 h; HL-60(TB); single dose 10 µM; read-out: Percentage Cell Growth
# CCRF-CEM = test: NCI-60 SRB screen: leukemia CCRF-CEM; format: cell-based; settings: Homo sapiens, 48 h, single dose 10 µM, read-out: Percentage Cell Growth
# MOLT-4 = test: NCI-60 SRB screen: leukemia MOLT-4; format: cell-based; settings: Homo sapiens, 48 h; MOLT-4; single dose 10 µM; read-out: Percentage Cell Growth
# RPMI-8226 = test: NCI-60 SRB screen: leukemia RPMI-8226; format: cell-based; settings: Homo sapiens, 48 h; RPMI-8226; single dose 10 µM; read-out: Percentage Cell Growth
# HOP-92 = test: NCI-60 SRB screen: non-small cell lung cancer HOP-92; format: cell-based, human; settings: HOP-92; single dose 10 µM
# NCI-H460 = test: NCI-60 SRB screen: non-small cell lung cancer NCI-H460; format: cell-based; settings: Homo sapiens, 48 h; NCI-H460; single dose 10 µM; read-out: Percentage Cell Growth
# HCT-116 = test: NCI-60 SRB screen: colon cancer HCT-116; format: cell-based; settings: Homo sapiens, 48 h; HCT-116; single dose 10 µM; read-out: Percentage Cell Growth
# SW-620 = test: NCI-60 SRB screen: colon cancer SW-620; format: cell-based; settings: Homo sapiens, 48 h; SW-620; single dose 10 µM; read-out: Percentage Cell Growth
# SF-295 = test: NCI-60 SRB screen: CNS cancer SF-295; format: cell-based, human; settings: SF-295; single dose 10 µM
# SNB-75 = test: NCI-60 SRB screen: CNS cancer SNB-75; format: cell-based, human; settings: SNB-75; single dose 10 µM
# U251 = test: NCI-60 SRB screen: CNS cancer U251; format: cell-based; settings: Homo sapiens, U-251, 48 h; U251; single dose 10 µM; read-out: Percentage Cell Growth
# SK-MEL-5 = test: NCI-60 SRB screen: melanoma SK-MEL-5; format: cell-based, human; settings: SK-MEL-5; single dose 10 µM
# ACHN = test: NCI-60 SRB screen: renal cancer ACHN; format: cell-based, human; settings: single dose 10 µM
# CAKI-1 = test: NCI-60 SRB screen: renal cancer CAKI-1; format: cell-based, human; settings: CAKI-1; single dose 10 µM
# UO-31 = test: NCI-60 SRB screen: renal cancer UO-31; format: cell-based, human; settings: UO-31; single dose 10 µM
# PC-3 = test: NCI-60 SRB screen: prostate cancer PC-3; format: cell-based, human; settings: PC-3; single dose 10 µM
# MCF7 = test: NCI-60 SRB screen: breast cancer MCF7; format: cell-based; settings: Homo sapiens, 48 h; MCF7; single dose 10 µM; read-out: Percentage Cell Growth
# T-47D = test: NCI-60 SRB screen: breast cancer T-47D; format: cell-based, human; settings: T-47D; single dose 10 µM
structure (smiles),measurement,setting,value
"C[C@H]1O[C@H](O[C@H]2[C@H](O)[C@@H](O)[C@@H](O[C@H]3[C@H](O)[C@@H](O)C(O)O[C@@H]3CO)O[C@@H]2CO)[C@H](O)[C@@H](O)[C@@H]1N[C@H]1C=C(CO)[C@@H](O)[C@H](O)[C@H]1O (some centres unmarked) [Acarbose, reference compound]","Rat Liver ER Neutral α-Glucosidase Inhibition, m ± SD",[1]; 10 μM,5.68 ± 4.68%
same,"Rat Liver ER Neutral α-Glucosidase Inhibition, m ± SD",[1]; 100 μM,24.09 ± 6.48%
same,"Rat Liver ER Neutral α-Glucosidase Inhibition, m ± SD",[1]; 1 mM,74.55 ± 3.76%
C=C(C)[C@@H]1CC[C@]2(C(=O)NCCNCCN)CC[C@]3(C)[C@H](CC[C@@H]4[C@@]5(C)CC[C@H](O)C(C)(C)[C@@H]5CC[C@]43C)[C@@H]12 [Compound 7],activity at 10 µM,"[2]; read-out: Mean Growth, %",99.2%
same,activity at 10 µM,"[2]; read-out: Range of Growth, %",53.8 to 147%
C=C(C)[C@@H]1CC[C@]2(C(=O)NCCCCCCN(CCCN)CCCN)CC[C@]3(C)[C@H](CC[C@@H]4[C@@]5(C)CC[C@H](O)C(C)(C)[C@@H]5CC[C@]43C)[C@@H]12 [Compound 8],activity at 10 µM,HT29,24.3%
same,activity at 10 µM,MDA-MB-231/ATCC,20.4%
same,activity at 10 µM,"[2]; read-out: Mean Growth, %",80.5%
same,activity at 10 µM,"[2]; read-out: Range of Growth, %",20.4 to 135%
C=C(C)[C@@H]1CC[C@]2(C(N)=O)CC[C@]3(C)[C@H](CC[C@@H]4[C@@]5(C)CCC(=O)C(C)(C)[C@@H]5CC[C@]43C)[C@@H]12 [Compound 9],activity at 10 µM,HL-60(TB),25.9%
same,activity at 10 µM,"[2]; read-out: Mean Growth, %",72%
same,activity at 10 µM,"[2]; read-out: Range of Growth, %",25.9 to 115%
C=C(C)[C@@H]1CC[C@]2(C(=O)NCCCCCCN(CCCN)CCCN)CC[C@]3(C)[C@H](CC[C@@H]4[C@@]5(C)CCC(=O)C(C)(C)[C@@H]5CC[C@]43C)[C@@H]12 [Compound 13],activity at 10 µM,"[2]; read-out: Mean Growth, %",105%
same,activity at 10 µM,"[2]; read-out: Range of Growth, %",85.8 to 118%
C=C(C)[C@@H]1CC[C@]2(C(=O)NCCN(CCNC(=O)OC(C)(C)C)C(=O)OC(C)(C)C)CC[C@]3(C)[C@H](CC[C@@H]4[C@@]5(C)CCC(=O)C(C)(C)[C@@H]5CC[C@]43C)[C@@H]12 [Compound 14],activity at 10 µM,CCRF-CEM,14.9%
same,activity at 10 µM,HL-60(TB),-14.3%
same,activity at 10 µM,MOLT-4,11.7%
same,activity at 10 µM,RPMI-8226,22.2%
same,Percentage Cell Growth,HOP-92,8.07%
same,activity at 10 µM,NCI-H460,20.6%
same,activity at 10 µM,HCT-116,17.5%
same,activity at 10 µM,HT29,23.7%
same,activity at 10 µM,SW-620,28.8%
same,Percentage Cell Growth,SF-295,31.97%
same,Percentage Cell Growth,SNB-75,23.86%
same,activity at 10 µM,U251,27.9%
same,Percentage Cell Growth,SK-MEL-5,−8.44%
same,Percentage Cell Growth,ACHN,23.51%
same,Percentage Cell Growth,CAKI-1,18.57%
same,Percentage Cell Growth,UO-31,17.41%
same,Percentage Cell Growth,PC-3,19.12%
same,activity at 10 µM,MCF7,22.2%
same,activity at 10 µM,MDA-MB-231/ATCC,-33.8%
same,Percentage Cell Growth,T-47D,28.02%
same,activity at 10 µM,"[2]; read-out: Mean Growth, %",36.6%
